Where “and” joins values, the source holds several entries; their conditions need not be identical. Equal entries are not always repeated.
Test system: Hs578T complex spheroid growth, percent test/control
Assay: Anticancer human tumor Hs578T cell line growth inhibition [AhR];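 also: luminescent viability signal as a proxy for spheroid growth; spheroids exposed to agents for one week after three days of growth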
Conditions: for viability, T/C: stronger effect = lower value; active = viability on the fitted dose curve at most 10% of control; inactive = the rest
How it was run: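 Spheroids combined tumor cells with HUVEC endothelial cells and human MSCs as stroma. AhR antagonists were paired with standard or investigational drugs, each dosed in half-log steps down from near clinical Cmax, or from 10 microM where Cmax was unknown.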

Nc1ncn(C2CC(O)C(CO)S2)c(=O)n1 (stereo not given) + CC(CO)NC(=O)c1cc(-c2ccc(Cl)cc2)nn(-c2cnn(C)c2)c1=O
inactive: viability, T/C (second compound 0.1 µM, first compound 0.000949 µM) 115% | viability, T/C (second compound 0.1 µM, first compound 0.003 µM) 124% | viability, T/C (second compound 0.1 µM, first compound 0.00949 µM) 117% | viability, T/C (second compound 0.1 µM, first compound 0.03 µM) 119% | viability, T/C (second compound 0.1 µM, first compound 0.0949 µM) 115% | viability, T/C (second compound 0.1 µM, first compound 0.3 µM) 98.6% | viability, T/C (second compound 0.316 µM, first compound 0.000949 µM) 118% | viability, T/C (second compound 0.316 µM, first compound 0.003 µM) 114% | viability, T/C (second compound 0.316 µM, first compound 0.00949 µM) 128% | viability, T/C (second compound 0.316 µM, first compound 0.03 µM) 110% | viability, T/C (second compound 0.316 µM, first compound 0.0949 µM) 117% | viability, T/C (second compound 0.316 µM, first compound 0.3 µM) 108% | viability, T/C (second compound 1 µM, first compound 0.000949 µM) 112% | viability, T/C (second compound 1 µM, first compound 0.003 µM) 110% | viability, T/C (second compound 1 µM, first compound 0.00949 µM) 121% | viability, T/C (second compound 1 µM, first compound 0.03 µM) 121% | viability, T/C (second compound 1 µM, first compound 0.0949 µM) 122% | viability, T/C (second compound 1 µM, first compound 0.3 µM) 118% | viability, T/C (second compound 3.16 µM, first compound 0.000949 µM) 123% | viability, T/C (second compound 3.16 µM, first compound 0.003 µM) 122% | viability, T/C (second compound 3.16 µM, first compound 0.00949 µM) 116% | viability, T/C (second compound 3.16 µM, first compound 0.03 µM) 116% | viability, T/C (second compound 3.16 µM, first compound 0.0949 µM) 105% | viability, T/C (second compound 3.16 µM, first compound 0.3 µM) 112% | viability, T/C (second compound 10 µM, first compound 0.000949 µM) 113% | viability, T/C (second compound 10 µM, first compound 0.003 µM) 104% | viability, T/C (second compound 10 µM, first compound 0.00949 µM) 112% | viability, T/C (second compound 10 µM, first compound 0.03 µM) 113% | viability, T/C (second compound 10 µM, first compound 0.0949 µM) 110% | viability, T/C (second compound 10 µM, first compound 0.3 µM) 104%
> 300 nM: IC50 (curve of first compound, second compound 0.1 µM) | IC50 (curve of first compound, second compound 0.316 µM) | IC50 (curve of first compound, second compound 1 µM) | IC50 (curve of first compound, second compound 3.16 µM) | IC50 (curve of first compound, second compound 10 µM)

O=C(C=Cc1cccc(S(=O)(=O)Nc2ccccc2)c1)NO
2910 nM and 1730 nM and 2230 nM: IC50 (curve of compound)
inactive: viability, T/C (compound 0.0316 µM) 95.1% and 99% and 103% | viability, T/C (compound 0.1 µM) 109% and 96.7% and 106% | viability, T/C (compound 0.316 µM) 91.4% and 95.8% and 88.1% | viability, T/C (compound 1 µM) 73.5% and 71.2% and 72.4% | viability, T/C (compound 3.16 µM) 49.8% and 26% and 40.5%
active: viability, T/C (compound 10 µM) 1.74% and 0.77% and 1.35%

CC(CO)NC(=O)c1cc(-c2ccc(Cl)cc2)nn(-c2cnn(C)c2)c1=O (stereo not given)
> 10000 nM: IC50 (compound alone, run of 08/08/2022)
inactive: viability, T/C (compound 0.316 µM) 116% [middle of 21 runs] | viability, T/C (compound 1 µM) 109% [middle of 20 runs]

— PubChem BioAssay AID1919010 (Molecular Pharmacology Branch, DTP, NCI, 2023)
